# Like-named read-outs stand apart in the source and are kept apart here.
# How the values were obtained:
# Ba/F3 CD74-ROS1-S1986Y = test: Growth of transfected Ba/F3 cells (CellTiter-Glo, 3 days); type: cell-based; conditions: Mus musculus, BaF3
# Protocol: (§1) Harvest cells during the logarithmic growth period and count cells using blood counting chamber. Adjust cell concentration with culture medium. Add 90µl cell suspensions to two 96-well plates to the final cell density as described before. Incubate the plate overnight in humidified incubator at 37℃ with 5% CO2. Dispense 10µl drug solution (10×) to each well (triplicate for each concentration), and the DMSO final concentration in culture medium is 0.1% [v/v]. Culture the plates for 3 days.On Day 3, Read luminescent using Multi Label Reader. The software of GraphPad Prism was used to calculate IC50. The graphical curves were fitted using a nonlinear regression model with a sigmoidal dose response.
# Ba/F3 CD74-ROS1-D2033N = test: as above; type: cell-based; conditions: Mus musculus, BaF3
# Protocol: as §1
# Ba/F3 CD74-ROS1-L1951R = test: as above; type: cell-based; conditions: Mus musculus, BaF3
# Protocol: as §1
# Ba/F3 CD74-ROS1-S1986F = test: as above; type: cell-based; conditions: Mus musculus, BaF3
# Protocol: as §1
# [1] = test system: NSCLC patients with ALK or ROS1 rearrangement; conditions: cited from earlier work
# Ba/F3 ALK-G1269A = test: Growth of transfected Ba/F3 cells (CellTiter-Glo, 3 days); type: cell-based; conditions: Mus musculus, BaF3
# Protocol: as §1, with “days. On” for “days.On”
# Ba/F3 ALK-V1180L = test: as above; type: cell-based; conditions: Mus musculus, BaF3
# Protocol: as §1, with “days. On” for “days.On”
# Ba/F3 ALK-L1196M = test: as above; type: cell-based; conditions: Mus musculus, BaF3
# Protocol: as §1, with “days. On” for “days.On”
# Ba/F3 ALK-F1174V = test: as above; type: cell-based; conditions: Mus musculus, BaF3
# Protocol: as §1, with “days. On” for “days.On”
# Ba/F3 ALK-I1171T = test: as above; type: cell-based; conditions: Mus musculus, BaF3
# Protocol: as §1, with “days. On” for “days.On”
# Ba/F3 ALK-G1202del = test: as above; type: cell-based; conditions: Mus musculus, BaF3
# Protocol: as §1, with “days. On” for “days.On”
# Ba/F3 ALK-F1174L = test: as above; type: cell-based; conditions: Mus musculus, BaF3
# Protocol: as §1, with “days. On” for “days.On”
# Ba/F3 ALK-T1151Tins = test: as above; type: cell-based; conditions: Mus musculus, BaF3
# Protocol: as §1, with “days. On” for “days.On”
# Ba/F3 ALK-I1171N = test: as above; type: cell-based; conditions: Mus musculus, BaF3
# Protocol: as §1, with “days. On” for “days.On”
# Ba/F3 ALK-F1174C = test: as above; type: cell-based
# Protocol: as §1, with “days. On” for “days.On”
# Ba/F3 ALK-WT = test: as above; type: cell-based; conditions: Mus musculus, BaF3
# Protocol: as §1, with “days. On” for “days.On”
# Ba/F3 ALK-L1152P = test: as above; type: cell-based; conditions: Mus musculus, BaF3
# Protocol: as §1, with “days. On” for “days.On”
# Ba/F3 ALK-I1171S = test: as above; type: cell-based
# Protocol: as §1, with “days. On” for “days.On”
# Ba/F3 ALK-G1202R = test: as above; type: cell-based; conditions: Mus musculus, BaF3
# Protocol: as §1, with “days. On” for “days.On”
# Ba/F3 ALK-L1152R = test: as above; type: cell-based; conditions: Mus musculus, BaF3
# Protocol: as §1, with “days. On” for “days.On”
# Ba/F3 ALK-C1156Y = test: as above; type: cell-based; conditions: Mus musculus, BaF3
# Protocol: as §1, with “days. On” for “days.On”
# Ba/F3 SLC34A2-ROS1 = test: as above; type: cell-based; conditions: Mus musculus, BaF3
# Protocol: as §1
# [2] = test system: Ba/F3 SLC34A2-ROS1-L2026M; test: as above; type: cell-based; conditions: Mus musculus, BaF3
# Protocol: as §1
# [3] = test system: Ba/F3 SLC34A2-ROS1-G2032R; test: as above; type: cell-based; conditions: Mus musculus, BaF3
# Protocol: as §1
# [4] = test system: NCI-H1975 (EGFR mutant L858R/T790M); test: Cell proliferation inhibition assay; type: cell-based
# [5] = test system: patients treated with ALK TKIs; conditions: cited from earlier work
# [6] = test system: 27 non-target kinases (MAP4K4 ... INSR, EGFR wild type); test: Inhibitory study of 27 non-target kinases; type: biochemical; conditions: except for EGFR wild type
# LU-01-0319R NSCLC PDX = test: PDX model resistant to crizotinib; type: in vivo; conditions: WX-0593 2.5, 5, 10 mg/kg; ceritinib 10/20 mg/kg; brigatinib 10 mg/kg
# Ba/F3 (EML4-ALK-L1196M) = test: Cell proliferation inhibition assay; type: cell-based
# Karpas299 (NPM-ALK) = test: Cell proliferation inhibition assay; type: cell-based
# Ba/F3 (EML4-ALK-C1156Y) = test: Cell proliferation inhibition assay; type: cell-based
# Ba/F3 (EML4-ALK-WT) = test: Cell proliferation inhibition assay; type: cell-based
# [7] = Grades 1 and 2 adverse reactions
# [8] = serious adverse events in more than 2 patients
smiles,measurement,setting,value
CCc1cc2c(cc1N1CCC(N3CCOCC3)CC1)C(C)(C)c1[nH]c3cc(C#N)ccc3c1C2=O [Alectinib],IC50,Ba/F3 CD74-ROS1-S1986Y,10000 nM
same,IC50,Ba/F3 CD74-ROS1-D2033N,5070 nM
same,IC50,Ba/F3 CD74-ROS1-L1951R,5410 nM
same,IC50,Ba/F3 CD74-ROS1-S1986F,10000 nM
C[C@H]1Oc2cc(cnc2N)-c2c(nn(C)c2C#N)CN(C)C(=O)c2ccc(F)cc21 [Lorlatinib],ORR,[1]; ALK TKI-naive patients with ROS1 rearrangement,62%
same,ORR,"[1]; ROS1 rearrangement, crizotinib as the only TKI",35%
same,IC50,Ba/F3 ALK-G1269A,35 nM
same,IC50,Ba/F3 ALK-V1180L,5.2 nM
same,IC50,Ba/F3 ALK-L1196M,54 nM
same,IC50,Ba/F3 ALK-F1174V,16.1 nM
same,IC50,Ba/F3 ALK-I1171T,19 nM
same,IC50,Ba/F3 ALK-G1202del,215 nM
same,IC50,Ba/F3 ALK-F1174L,4 nM
same,IC50,Ba/F3 ALK-T1151Tins,7 nM
same,IC50,Ba/F3 ALK-I1171N,41.1 nM
same,IC50,Ba/F3 ALK-F1174C,15.9 nM
same,IC50,"Ba/F3 ALK-F1174C; Mus musculus, BaF3",11 nM
same,IC50,Ba/F3 ALK-WT,4 nM
same,IC50,Ba/F3 ALK-L1152P,4.6 nM
same,IC50,Ba/F3 ALK-I1171S,52.8 nM
same,IC50,"Ba/F3 ALK-I1171S; Mus musculus, BaF3",33 nM
same,IC50,Ba/F3 ALK-G1202R,26 nM
same,IC50,Ba/F3 ALK-L1152R,17.4 nM
same,IC50,Ba/F3 ALK-C1156Y,4 nM
same,IC50,Ba/F3 SLC34A2-ROS1,< 1 nM
same,IC50,[2],< 1 nM
same,IC50,Ba/F3 CD74-ROS1-S1986Y,1.5 nM
same,IC50,Ba/F3 CD74-ROS1-D2033N,1.7 nM
same,IC50,Ba/F3 CD74-ROS1-L1951R,5.1 nM
same,IC50,[3],197 nM
same,IC50,Ba/F3 CD74-ROS1-S1986F,1.1 nM
COc1cc(N2CCC(N3CCN(C)CC3)CC2)ccc1Nc1ncc(Cl)c(Nc2ccccc2P(C)(C)=O)n1 [Brigatinib],growth inhibition,[4],somewhat inhibits the growth
same,coughing,[5]; [7],26%
same,diarrhea,[5]; [7],36%
same,fatigue,[5]; [7],36%
same,headache,[5]; [7],26%
same,nausea,[5]; [7],45%
same,"diarrhea, % of patients",[5],41%
same,"dose reduction due to TEAEs, % of patients",[5],14%
same,DLTs in the tolerability study,"[5]; one Grade 3 ALT increased, one Grade 4 dyspnea and Grade 3 hypoxia",Two
same,coughing,[5]; [8],4%
same,dyspnea,[5]; [8],4%
same,hypoxia,[5]; [8],4%
same,pleural effusion,[5]; [8],4%
same,pneumonia,[5]; [8],7%
same,IC50,Ba/F3 ALK-G1269A,31 nM
same,IC50,Ba/F3 ALK-V1180L,10.4 nM
same,IC50,Ba/F3 ALK-L1196M,31 nM
same,IC50,Ba/F3 ALK-I1171T,18.9 nM
same,IC50,Ba/F3 ALK-G1202del,1000 nM
same,IC50,Ba/F3 ALK-F1174L,31 nM
same,IC50,Ba/F3 ALK-T1151Tins,35 nM
same,IC50,Ba/F3 ALK-I1171N,35 nM
same,IC50,"Ba/F3 ALK-F1174C; Mus musculus, BaF3, ALK-F1174C, first listing (r10)",97 nM
same,IC50,"Ba/F3 ALK-F1174C; Mus musculus, BaF3, ALK-F1174C, second listing (r15)",51.6 nM
same,IC50,Ba/F3 ALK-WT,25 nM
same,IC50,Ba/F3 ALK-L1152P,1.5 nM
same,IC50,"Ba/F3 ALK-I1171S; Mus musculus, BaF3, ALK-I1171S, first listing (r12)",93 nM
same,IC50,"Ba/F3 ALK-I1171S; Mus musculus, BaF3, ALK-I1171S, second listing (r19)",40 nM
same,IC50,Ba/F3 ALK-G1202R,340 nM
same,IC50,Ba/F3 ALK-L1152R,10.4 nM
same,IC50,Ba/F3 ALK-C1156Y,39 nM
same,inhibitory activity against non-target kinases,[6],no significant inhibitory activity
same,anti-tumor effect,LU-01-0319R NSCLC PDX,significant effects against crizotinib-induced resistance
same,IC50,Ba/F3 SLC34A2-ROS1,22 nM
same,IC50,[2],48 nM
same,IC50,Ba/F3 CD74-ROS1-S1986Y,12.5 nM
same,IC50,Ba/F3 CD74-ROS1-D2033N,36.5 nM
same,IC50,Ba/F3 CD74-ROS1-L1951R,775 nM
same,IC50,[3],846 nM
same,IC50,Ba/F3 CD74-ROS1-S1986F,20.2 nM
same,growth inhibition,Ba/F3 (EML4-ALK-L1196M),significantly inhibits the growth
same,growth inhibition,Karpas299 (NPM-ALK),significantly inhibits the growth
same,growth inhibition,Ba/F3 (EML4-ALK-C1156Y),significantly inhibits the growth
same,growth inhibition,Ba/F3 (EML4-ALK-WT),significantly inhibits the growth

# Source: PMC8795197, “Safety and activity of WX-0593 (Iruplinalkib) in patients with ALK- or ROS1-rearranged advanced non-small cell lung cancer: a phase 1 dose-escalation and dose-expansion trial” (Signal Transduction and Targeted Therapy, 2022)
